Test results taken from US20250319032A1, “PHARMACEUTICAL COMPOSITIONS OF RIBOCICLIB” (Novartis AG, priority 2024, published 2025).
One block for each compound: values may come before it.

How the values were obtained:
[1] = Nitrite content (ion chromatography; LC-FLD with DAN derivatisation; Griess test) in drug substance, intermediates, reagents, solvents, filters, excipients; type: physicochemical; details: for Nitrite NAT enhanced sample prep. (ppm) / Nitrite NAP method (ppm): ribociclib succinate drug substance batches at release
Text: The method of testing for the presence and/or total amount of nitrites that is used in the methods of the invention may be any method which allows for the detection and/or quantitation of nitrites in a composition. For example, the method may be the Griess test. The Griess test allows for the detection and analysis of nitrite by the formation of a red-pink colour upon treatment of a nitrite-containing sample with the Griess reagent. The Griess reagent consists of two components in an acidic solution: an aniline derivative and a coupling agent. The most common arrangements use sulfanilamide and N-(1-naphthyl)ethylenediamine. For example 0.2% N-(1-naphthyl)ethylenediamine dihydrochloride and 2% sulfanilamide in 5% phosphoric acid may be used as a Griess reagent. Other aniline derivatives that may be used in a Griess reagent include sulfanilic acid, nitroaniline, and p-aminoacetophenone.
The Griess test involves two subsequent reactions, as shown in the scheme below. When the aniline derivative (e.g., sulfanilamide) is added, the nitrite ion reacts with it in the Griess diazotization reaction to form a diazonium salt, which then reacts with N-(1-naphthyl)ethylenediamine in an azo-coupling reaction, forming a pink-red azo-dye. Using a spectrophotometer, the nitrite concentration can then be quantitatively detected.
Additionally purified water; e.g. Milli Q • 2.
• 10 mM KH2PO4 Weigh accurately about 1.361 g of KH2PO4 into a 1 L volumetric flask, dissolve it in approximately 950 mL of additionally purified water and adjust the pH to 8.0 (with 2.7 M NaOH). Make up to the mark with additionally purified water. • 0.62 M HCl Add a few millilitres (e.g. 20 mL) of additionally purified water to a 200 mL volumetric flask, add 10.280 mL of concentrated HCl, mix and make up to the mark with additionally purified water. • 2.7 M NaOH Weigh accurately about 1.092 g of NaOH pellets into a 10 mL volumetric flask and dissolve it in additionally purified water. Cool to room temperature and make up to the mark with the same solvent. • Reagent DAN Weigh accurately about 5 mg of 2,3-diaminophthalene into a 100 mL volumetric flask and dissolve it with the solvent (methanol/water 1:1 (v/v)). Dilute up to the mark and ensure visual full dissolution. Use an amberglass flask. • Mobile phase A Mix 950 mL of 10 mM KH2PO4 solution (pH=8) and add 50 mL methanol. • Mobile phase B Methanol. • Solvent Methanol/water 1:1 (v/v), e.g. mix 2000 mL of additionally purified water and 2000 mL methanol.
• Instrument: HPLC with FLR detector; e.g. Waters Arc or equivalent • Column: C18 50×4.6 mm, 2.5 μm, e.g. XBridge C18 2.5 μm, 4.650 mm or equivalent
• Notes It is recommended to wear additional protective equipment (face mask and gloves) during weighing. • It is recommended to wash the column with 50% methanol after the analysis (example of preparation: mix 500 mL methanol and 500 m1 of additionally purified water). • It is recommended to rinse the injector with solvent after each injection. • All glassware and tools should be rinsed with additionally purified water before use. It is not recommended to leave the solutions open for a longer time before measurement. • Blank solution 1 Transfer 1 mL of solvent into a HPLC vial and perform derivatization as described below. • Blank solution 2 Transfer 10 mL of solvent into a single use glass vial and mix it on a magnetic stirrer for 30 min. Transfer the solution into a 5 mL centrifuge tube and centrifuge for 10 min at 12000 rpm. […] Fill up to the mark with solvent and mix. • (Cnitrite≈0.0005 mg/mL) • Comparison solution Transfer 10 mL of nitrite stock solution into a 500 mL volumetric flask. • (2 parallels) Fill up to the mark with solvent and mix. • Transfer 1 mL solution into a HPLC vial and perform the derivatization as described below. • (Cnitrite≈100 ppb) • Sample solution Accurately weigh about 1000 mg of the sample into a glass vial for single use and add 10 mL of solvent.

[2] = DMP433 (N-nitroso-ribociclib) content in ribociclib base (B10) and ribociclib succinate (B12, drug substance) batches and process experiments, LC-MS/MS or HPLC-HRMS; type: physicochemical; details: for DMP433 [ppm] LOQ (0.0625 ppm) / DMP433 [ppm], result in brackets (extrapolation, estimate of actual value below LOQ): ribociclib base (LEE011 B10)
Text: The method of testing for the presence and/or total amount of nitrosamines (such as the presence and/or total amount of N-nitroso-ribociclib in free or salt form) that is used in the methods of the invention may be any method which allows for the detection of nitrosamines in a composition. For example, the method may involve the Griess test described above. In such a method, the nitrosamines may be first denitrosated (e.g., by photolysis) to form a nitrite, which is then detected in the Griess test. Alternatively, the method may include high performance liquid chromatography (HPLC)- and/or gas chromatography (GC)-mass spectroscopy. An example of a method of testing for the presence and amount of nitrosamines (namely N-nitroso-ribociclib) is provided herein as Example 14. […]
2.7. […] Dissolve the substance using vortex and fill to volume with solvent (50% MeOH). • 3. Filter through 0.2 μm PVDF (polyvinylidene difluoride) or PTFE (polytetrafluoroethylene) filter into a HPLC amber vial, discard the first 0.5 ml.
A calibration curve for DMP433 is created, using calibration standard solutions L1-L6, and expressing the relationship between responses (peak areas) and standard concentrations (ng/ml). For L1, the average of 6 injections is used. Linear regression is weighed with 1/amount. […]

[3] = additional batches of ribociclib base LEE011-B10 (IP-1)

Nitrite [ppm] LOD (1 ppm) [1, 3]: <LOD
DMP433 [ppb] [2, 3]: 57 ppb
DMP433 [ppm] LOQ (0.0625 ppm) [2]: LOQ
DMP433 [ppm], result in brackets (extrapolation, estimate of actual value below LOQ) [2]: 0.006 ppm
Structure (SMILES): CN(C)C(=O)c1cc2cnc(Nc3ccc(N4CCNCC4)cn3)nc2n1C1CCCC1 [Batch B704193]

DMP433 [ppm] LOQ (0.0625 ppm) [2]: LOQ
DMP433 [ppm], result in brackets (extrapolation, estimate of actual value below LOQ) [2]: 0.035 ppm
Structure (SMILES): CN(C)C(=O)c1cc2cnc(Nc3ccc(N4CCNCC4)cn3)nc2n1C1CCCC1 [Batch B0705467]

Nitrite [ppm] LOD (1 ppm) ([1]; ribociclib base (LEE011 B10), ion chromatography): <LOD
DMP433 [ppm] LOQ (0.0625 ppm) [2]: LOQ
DMP433 [ppm], result in brackets (extrapolation, estimate of actual value below LOQ) [2]: 0.047 ppm
Structure (SMILES): CN(C)C(=O)c1cc2cnc(Nc3ccc(N4CCNCC4)cn3)nc2n1C1CCCC1 [Batch 923037A002]

Nitrite [ppm] ([1]; laboratory use test, salt formation B10 to B12 with filter parts added, QLS LJ LC-FLD/DAN): app. 0.2 ppm
DMP433 [ppm] ([2]; laboratory use test, salt formation B10 to B12 with filter parts added (filter per experiment), AS&T LJ LC-MS/MS): 1.789 ppm
Structure (SMILES): CN(C)C(=O)c1cc2cnc(Nc3ccc(N4CCNCC4)cn3)nc2n1C1CCCC1.O=C(O)CCC(=O)O [LEE011-cusakal1-034]

N-nitroso-ribociclib ([2]; starting material used for technical batch NV1900): 0.21 ppm
Structure (SMILES): CN(C)C(=O)c1cc2cnc(Nc3ccc(N4CCNCC4)cn3)nc2n1C1CCCC1.O=C(O)CCC(=O)O [Batch B728969]

DMP433 in B10 ([2]; starting material of 5 kg technical batches): 55.8 ppb
Structure (SMILES): CN(C)C(=O)c1cc2cnc(Nc3ccc(N4CCNCC4)cn3)nc2n1C1CCCC1.O=C(O)CCC(=O)O [Technical batch 1]

DMP433 [ppm] LOQ (0.0625 ppm) [2]: LOQ
DMP433 [ppm], result in brackets (extrapolation, estimate of actual value below LOQ) [2]: 0.005 ppm
Structure (SMILES): CN(C)C(=O)c1cc2cnc(Nc3ccc(N4CCNCC4)cn3)nc2n1C1CCCC1 [Batch B704194]

DMP433 in LEE011-B12 ([2]; re-slurry of LEE011-B12 in iPrOH at 10° C.): 64 ppm
Structure (SMILES): CN(C)C(=O)c1cc2cnc(Nc3ccc(N4CCNCC4)cn3)nc2n1C1CCCC1.O=C(O)CCC(=O)O [LEE011-haenepa1-013]

DMP433 [ppm] LOQ (0.0625 ppm) [2]: LOQ
DMP433 [ppm], result in brackets (extrapolation, estimate of actual value below LOQ) [2]: 0.037 ppm
Structure (SMILES): CN(C)C(=O)c1cc2cnc(Nc3ccc(N4CCNCC4)cn3)nc2n1C1CCCC1 [Batch B705465]

DMP433 [ppm] LOQ (0.0625 ppm) [2]: LOQ
DMP433 [ppm], result in brackets (extrapolation, estimate of actual value below LOQ) [2]: 0.030 ppm
Structure (SMILES): CN(C)C(=O)c1cc2cnc(Nc3ccc(N4CCNCC4)cn3)nc2n1C1CCCC1.O=C(O)CCC(=O)O [Batch B0705468]

DMP433 content (corrected value) at release ([2]; drug substance DS06 used for tablet core experiments and binary mixtures): 0.655 ppm
Structure (SMILES): CN(C)C(=O)c1cc2cnc(Nc3ccc(N4CCNCC4)cn3)nc2n1C1CCCC1.O=C(O)CCC(=O)O [Batch B699003AA]

Nitrite NAT enhanced sample prep. (ppm) ([1]; manufacturer Raybow - DS04): <0.1 ppm
Structure (SMILES): CN(C)C(=O)c1cc2cnc(Nc3ccc(N4CCNCC4)cn3)nc2n1C1CCCC1.O=C(O)CCC(=O)O [RIBOCICLIB SUCCINATE 833268R009]

Nitrite NAP method (ppm) [1]: 0.2 ppm
Nitrite NAT enhanced sample prep. (ppm) [1]: 0.1 ppm
Structure (SMILES): CN(C)C(=O)c1cc2cnc(Nc3ccc(N4CCNCC4)cn3)nc2n1C1CCCC1.O=C(O)CCC(=O)O [Batch B698297]

Nitrite NAP method (ppm) [1]: 0.5 ppm
Nitrite NAT enhanced sample prep. (ppm) [1]: <0.1 ppm
Structure (SMILES): CN(C)C(=O)c1cc2cnc(Nc3ccc(N4CCNCC4)cn3)nc2n1C1CCCC1.O=C(O)CCC(=O)O [Batch B710666]
